US20240425478A1, “CYCLOPENTYLPYRAZOLE CDK2 INHIBITORS” (Genentech, Inc., priority 2021, published 2024)
Like-named read-outs stand apart in the source and are kept apart here.

How the values were obtained:
[1] = target: T1, Cyclin Dependent Kinase 2/Cyclin E1 (CDK2-cycE1) (Homo sapiens, UniProt P24941); assay: CDK2-cycE1 TR-FRET (LANCE) enzyme assay; assay type: biochemical; settings: for FS CDK1/CDK2 / FS CDK4/CDK2: fold selectivity; for FS CDK1/CDK2: enzymatic CDK1 Ki over CDK2 Ki; for FS CDK4/CDK2: enzymatic CDK4 Ki over CDK2 Ki; for CDK2 Ki fold change in potency versus Comparator D / CDK2 Ki fold change in potency versus Comparator E: in brackets after CDK2 Ki
T1 construct: purchased ProQinase 0050-0055-1
Summary of the method: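 Kinase reaction buffer: 50 mM HEPES pH 7.5, 10 mM MgCl2, 2 mM TCEP, 0.05% BGG, 0.01% Brij 35, with 30 min compound–enzyme pre-incubation.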

[2] = target: T2, Cyclin Dependent Kinase 1/Cyclin A2 (CDK1-cycA2) (Homo sapiens, UniProt P06493); assay: CDK1-cycA2 TR-FRET (Lance) enzyme assay; assay type: biochemical; settings: for Ki: Table O, enzymatic assay; for FS CDK1/CDK2: fold selectivity, enzymatic Ki ratio
T2 construct: purchased ProQinase 0134-0054-1
T2 sequence (P06493 whole entry): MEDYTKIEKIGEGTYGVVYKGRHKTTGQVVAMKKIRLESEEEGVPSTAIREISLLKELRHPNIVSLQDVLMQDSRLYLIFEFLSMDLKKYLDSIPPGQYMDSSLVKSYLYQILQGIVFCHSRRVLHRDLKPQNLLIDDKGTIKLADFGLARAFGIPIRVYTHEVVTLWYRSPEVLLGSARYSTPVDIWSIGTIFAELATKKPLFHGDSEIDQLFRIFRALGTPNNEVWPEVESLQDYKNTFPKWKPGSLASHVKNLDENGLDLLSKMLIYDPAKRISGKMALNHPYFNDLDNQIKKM
T2 sequence (P20248 whole entry partner): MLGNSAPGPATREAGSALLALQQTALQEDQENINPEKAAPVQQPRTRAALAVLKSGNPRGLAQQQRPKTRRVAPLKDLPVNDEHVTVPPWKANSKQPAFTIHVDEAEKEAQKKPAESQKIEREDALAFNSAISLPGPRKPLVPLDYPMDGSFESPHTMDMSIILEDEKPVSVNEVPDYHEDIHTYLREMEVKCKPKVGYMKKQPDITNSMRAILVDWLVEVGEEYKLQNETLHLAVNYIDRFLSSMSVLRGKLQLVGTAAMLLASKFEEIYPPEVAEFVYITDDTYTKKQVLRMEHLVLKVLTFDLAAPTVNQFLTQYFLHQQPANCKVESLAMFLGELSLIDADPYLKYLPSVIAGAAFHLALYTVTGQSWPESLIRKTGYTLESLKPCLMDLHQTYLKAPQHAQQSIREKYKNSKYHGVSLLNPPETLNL
Summary of the method: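 TR-FRET (Lance) detection of phospho-4E-BP1 with a europium-labelled antibody after EDTA quench (15 mM final); signal taken as acceptor/donor ratio. Enzyme and compound were pre-incubated 30 min in HEPES pH 7.5 buffer with MgCl2, TCEP, BGG and Brij 35. Ki derived by Morrison fit.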

[3] = system: OVISE (JCRB1043, CCNE1-amplified); assay: OVISE EdU incorporation cell proliferation assay (CDK2-dependent); assay type: cell-based; settings: for IC50 / FS SKOV-3/OVISE / FS p-H3/OVISE: Table O; for IC50: cellular assay, read-out: CDK2 OVISE IC50; for FS SKOV-3/OVISE / FS p-H3/OVISE: fold selectivity; for FS SKOV-3/OVISE: cellular SKOV-3 IC50 over OVISE IC50; for FS p-H3/OVISE: cellular p-H3 IC50 over OVISE IC50; for CDK2 OVISE IC50 fold change in potency versus Comparator D: Table R; for CDK2 OVISE IC50 fold change in potency versus Comparator D / CDK2 OVISE IC50 fold change in potency versus Comparator E: in brackets after OVISE IC50; for CDK2 OVISE IC50 fold change in potency versus Comparator E: Table S
Summary of the method: (§1)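 EdU incorporation (0.5 μM final, last 8 h) follows a 16 h compound exposure at 37 °C, 5% CO2 in RPMI plus 10% FBS, 0.5% DMSO. After fixation, imaging scores EdU-positive cells; a 4-parameter logistic fit of that fraction gives IC50.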

HCT116 cells = assay: p-H3 HCT-116 mitotic release cell proliferation assay (cellular CDK1); assay type: cell-based; settings: Homo sapiens, HCT-116; Table O, cellular assay; read-out: CDK1 p-H3 IC50
Summary of the method: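 Phospho-Histone H3 (Ser10) in lysates was quantified by a two-antibody HTRF FRET read (≥2 h, room temperature). Before this, HCT116 cells held in mitosis by 16 h of 500 nM nocodazole were treated with compound for 4 h at 37 °C, 0.1% DMSO.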

SKOV-3 (ATCC HTB-77) = assay: SKOV-3 EdU incorporation cell proliferation assay (CDK4/6-dependent); assay type: cell-based; settings: for IC50: Homo sapiens, SK-OV-3, Table O, cellular assay, read-out: CDK4/6 SKOV-3 IC50; for selectivity for CDK2 over CDK4 compared with Comparator E: SKOV-3/OVISE fold-selectivity cellular assay data; for FS SKOV-3/OVISE: fold selectivity, cellular IC50 ratio
Summary of the method: as §1

[4] = target: T3, Cyclin Dependent Kinase 4/Cyclin D3 (CDK4-cycD3) (Homo sapiens, UniProt P11802); assay: CDK4-cycD3 TR-FRET (LANCE) enzyme assay; assay type: biochemical; settings: for Ki: Table O, enzymatic assay; for FS CDK4/CDK2: fold selectivity, enzymatic Ki ratio
T3 construct: purchased Carna Biosciences 04-105
T3 sequence (P11802 whole entry): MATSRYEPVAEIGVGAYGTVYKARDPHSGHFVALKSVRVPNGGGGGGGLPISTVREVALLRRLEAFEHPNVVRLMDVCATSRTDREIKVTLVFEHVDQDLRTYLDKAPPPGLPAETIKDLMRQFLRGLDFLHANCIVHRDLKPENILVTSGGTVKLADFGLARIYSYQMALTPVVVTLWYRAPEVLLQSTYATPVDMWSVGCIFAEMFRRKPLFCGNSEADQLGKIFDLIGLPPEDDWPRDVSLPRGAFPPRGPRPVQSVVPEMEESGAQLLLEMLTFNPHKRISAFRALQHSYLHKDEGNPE
T3 sequence (P30281 whole entry partner): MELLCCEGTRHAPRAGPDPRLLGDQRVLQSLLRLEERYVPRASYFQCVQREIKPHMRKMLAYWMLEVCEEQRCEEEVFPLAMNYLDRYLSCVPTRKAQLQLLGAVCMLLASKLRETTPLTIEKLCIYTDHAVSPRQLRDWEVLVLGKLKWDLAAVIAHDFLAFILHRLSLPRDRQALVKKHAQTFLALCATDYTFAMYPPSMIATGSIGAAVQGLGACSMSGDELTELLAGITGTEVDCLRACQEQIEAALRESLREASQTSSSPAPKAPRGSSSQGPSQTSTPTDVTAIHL
Summary of the method: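 Compound dose responses pre-incubated 30 min with enzyme mix in 50 mM HEPES pH 7.5, 10 mM MgCl2, 2 mM TCEP, 0.05% BGG, 0.01% Brij 35. Reaction quenched with EDTA (15 mM final); Eu-anti-phospho-4E-BP1 TR-FRET detection, acceptor/donor ratio. Ki derived by Morrison equation.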

[5] = Table O, enzymatic assay, read-out: CDK2 Ki
[6] = Table R, enzymatic assay, read-out: CDK2 Ki
[7] = Table S, enzymatic assay, read-out: CDK2 Ki
[8] = read-out: CDK2 activity / potency (enzymatic assay)

## O=C(NC12CC(C1)C2)O[C@@H]1CC[C@H](c2cc(Nc3cccnn3)n[nH]2)C1 [Example 3, (1R,3S)-3-(3-(pyridazin-3-ylamino)-1H-pyrazol-5-yl)cyclopentyl bicyclo[1.1.1]pentan-1-ylcarbamate]
[1]; [5]
  Ki: 1.8 nM
[1]; Table O
  FS CDK1/CDK2: 26
  FS CDK4/CDK2: 61
[2]
  Ki: 47 nM
[3]
  IC50: 150 nM
  FS SKOV-3/OVISE: 15
  FS p-H3/OVISE: 0.49
HCT116 cells
  IC50: 73 nM
SKOV-3 (ATCC HTB-77)
  IC50: 2300 nM
[4]
  Ki: 110 nM

## CC1(NC(=O)O[C@@H]2CC[C@H](c3cc(Nc4cccnn4)n[nH]3)C2)CC1 [Example 3A, (1R,3S)-3-(3-(pyridazin-3-ylamino)-1H-pyrazol-5-yl)cyclopentyl (1-methylcyclopropyl)carbamate]
[1]; [5]
  Ki: 2.5 nM
[1]; Table O
  FS CDK1/CDK2: 29
  FS CDK4/CDK2: 60
[2]
  Ki: 72 nM
[3]
  IC50: 130 nM
  FS SKOV-3/OVISE: 21
  FS p-H3/OVISE: 1.2
HCT116 cells
  IC50: 160 nM
SKOV-3 (ATCC HTB-77)
  IC50: 2700 nM
[4]
  Ki: 150 nM

## CN1CCC(NC(=O)O[C@@H]2CC[C@H](c3cc(Nc4cccnn4)n[nH]3)C2)CC1 [Example 3E, (1R,3S)-3-(3-(pyridazin-3-ylamino)-1H-pyrazol-5-yl)cyclopentyl (1-methylpiperidin-4-yl)carbamate]
[1]; [5]
  Ki: 10 nM
[1]; Table O
  FS CDK1/CDK2: 28
  FS CDK4/CDK2: 72
[2]
  Ki: 280 nM
[3]
  IC50: 420 nM
  FS SKOV-3/OVISE: 31
  FS p-H3/OVISE: 3.3
HCT116 cells
  IC50: 1400 nM
SKOV-3 (ATCC HTB-77)
  IC50: 13000 nM
[4]
  Ki: 720 nM

## CC1(NC(=O)O[C@@H]2CC[C@H](c3cc(Nc4cccnn4)n[nH]3)C2)CNC1 [Example 3F, (1R,3S)-3-(3-(pyridazin-3-ylamino)-1H-pyrazol-5-yl)cyclopentyl (3-methylazetidin-3-yl)carbamate]
[1]; [5]
  Ki: 4 nM
[1]; Table O
  FS CDK1/CDK2: 27
  FS CDK4/CDK2: 6
[2]
  Ki: 110 nM
[3]
  IC50: 320 nM
  FS SKOV-3/OVISE: 4.1
  FS p-H3/OVISE: 1.1
HCT116 cells
  IC50: 350 nM
SKOV-3 (ATCC HTB-77)
  IC50: 1300 nM
[4]
  Ki: 24 nM

## Cc1ncccc1Nc1cc([C@H]2CC[C@@H](OC(=O)NC(C)(C)C)C2)[nH]n1 [Example 4, (1R,3S)-3-(3-((2-methylpyridin-3-yl)amino)-1H-pyrazol-5-yl)cyclopentyl tert-butylcarbamate]
[1]; [5]
  Ki: 0.22 nM
[1]; Table O
  FS CDK1/CDK2: 110
  FS CDK4/CDK2: 160
[1]; [6]
  Ki: 0.22 nM
[1]; Table R
  CDK2 Ki fold change in potency versus Comparator D: 12.3 fold
[1]; [7]
  Ki: 0.22 nM
[1]; Table S
  CDK2 Ki fold change in potency versus Comparator E: 2.4 fold
[1]; [8]
  Ki: ≤ 1 nM
[2]
  Ki: 25 nM
[2]; Table R
  FS CDK1/CDK2 increased over Comparator D, (+) sign: (+)
  FS CDK1/CDK2: 110
[2]; Table S
  FS CDK1/CDK2 increased over Comparator E, (+) sign: (+)
  FS CDK1/CDK2: 110
[3]; CDK2 OVISE cellular assay data
  CDK2 cell potency compared with Comparator E: more potent CDK2 cell inhibitors compared to Comparator E
[3]
  IC50: 20 nM
  FS SKOV-3/OVISE: 46
  FS p-H3/OVISE: 1.5
  CDK2 OVISE IC50 fold change in potency versus Comparator D: 190 fold
  CDK2 OVISE IC50 fold change in potency versus Comparator E: 8.5 fold
HCT116 cells
  IC50: 30 nM
SKOV-3 (ATCC HTB-77)
  IC50: 920 nM
  selectivity for CDK2 over CDK4 compared with Comparator E: increase in selectivity for CDK2 over CDK4
SKOV-3 (ATCC HTB-77); Table R
  FS SKOV-3/OVISE increased over Comparator D, (+) sign: (+)
  FS SKOV-3/OVISE: 46
SKOV-3 (ATCC HTB-77); Table S
  FS SKOV-3/OVISE increased over Comparator E, (+) sign: (+)
  FS SKOV-3/OVISE: 46
[4]
  Ki: 34 nM
[4]; Table R
  FS CDK4/CDK2 increased over Comparator D, (+) sign: (+)
  FS CDK4/CDK2: 160
[4]; Table S
  FS CDK4/CDK2 increased over Comparator E, (+) sign: (+)
  FS CDK4/CDK2: 160

## Cc1ccncc1Nc1cc([C@H]2CC[C@@H](OC(=O)NC(C)(C)C)C2)[nH]n1 [Example 4A, (1R,3S)-3-(3-((4-methylpyridin-3-yl)amino)-1H-pyrazol-5-yl)cyclopentyl tert-butylcarbamate]
[1]; [5]
  Ki: 2.6 nM
[1]; Table O
  FS CDK1/CDK2: 78
  FS CDK4/CDK2: 170
[1]; [6]
  Ki: 2.6 nM
[1]; Table R
  CDK2 Ki fold change in potency versus Comparator D: 1 fold
[1]; [7]
  Ki: 2.6 nM
[1]; Table S
  CDK2 Ki fold change in potency versus Comparator E: 0.2 fold
[2]
  Ki: 210 nM
[2]; Table R
  FS CDK1/CDK2 increased over Comparator D, (+) sign: (+)
  FS CDK1/CDK2: 78
[2]; Table S
  FS CDK1/CDK2 increased over Comparator E, (+) sign: (+)
  FS CDK1/CDK2: 78
[3]
  IC50: 180 nM
  FS SKOV-3/OVISE: 71
  FS p-H3/OVISE: 0.72
  CDK2 OVISE IC50 fold change in potency versus Comparator D: 21 fold
  CDK2 OVISE IC50 fold change in potency versus Comparator E: 0.9 fold
HCT116 cells
  IC50: 93 nM
SKOV-3 (ATCC HTB-77)
  IC50: 9900 nM
  selectivity for CDK2 over CDK4 compared with Comparator E: increase in selectivity for CDK2 over CDK4
SKOV-3 (ATCC HTB-77); Table R
  FS SKOV-3/OVISE increased over Comparator D, (+) sign: (+)
  FS SKOV-3/OVISE: 71
SKOV-3 (ATCC HTB-77); Table S
  FS SKOV-3/OVISE increased over Comparator E, (+) sign: (+)
  FS SKOV-3/OVISE: 71
[4]
  Ki: 410 nM
[4]; Table R
  FS CDK4/CDK2 increased over Comparator D, (+) sign: (+)
  FS CDK4/CDK2: 170
[4]; Table S
  FS CDK4/CDK2 increased over Comparator E, (+) sign: (+)
  FS CDK4/CDK2: 170

## Cc1ccc(Nc2cc([C@H]3CC[C@@H](OC(=O)NC(C)(C)C)C3)[nH]n2)cn1 [Example 4B, (1R,3S)-3-(3-((6-methylpyridin-3-yl)amino)-1H-pyrazol-5-yl)cyclopentyl tert-butylcarbamate]
[1]; [5]
  Ki: 0.52 nM
[1]; Table O
  FS CDK1/CDK2: 38
  FS CDK4/CDK2: 37
[1]; [6]
  Ki: 0.52 nM
[1]; Table R
  CDK2 Ki fold change in potency versus Comparator D: 5.2 fold
[1]; [7]
  Ki: 0.52 nM
[1]; Table S
  CDK2 Ki fold change in potency versus Comparator E: 1 fold
[1]; [8]
  Ki: ≤ 1 nM
[2]
  Ki: 20 nM
[2]; Table R
  FS CDK1/CDK2 increased over Comparator D, (+) sign: (+)
  FS CDK1/CDK2: 38
[2]; Table S
  FS CDK1/CDK2: 38
[3]
  IC50: 33 nM
  FS SKOV-3/OVISE: 12
  FS p-H3/OVISE: 0.70
  CDK2 OVISE IC50 fold change in potency versus Comparator D: 115 fold
  CDK2 OVISE IC50 fold change in potency versus Comparator E: 5.2 fold
HCT116 cells
  IC50: 23 nM
SKOV-3 (ATCC HTB-77)
  IC50: 390 nM
SKOV-3 (ATCC HTB-77); Table R
  FS SKOV-3/OVISE increased over Comparator D, (+) sign: (+)
  FS SKOV-3/OVISE: 12
SKOV-3 (ATCC HTB-77); Table S
  FS SKOV-3/OVISE: 12
[4]
  Ki: 19 nM
[4]; Table R
  FS CDK4/CDK2 increased over Comparator D, (+) sign: (+)
  FS CDK4/CDK2: 37
[4]; Table S
  FS CDK4/CDK2: 37
